In brackets after ≈: the same amount, converted by molar mass.

Data set [1] addresses T1, Tyrosine-protein kinase JAK1 (Homo sapiens, UniProt P23458). Format: cell-based, TF-1.
The nature of data set [2]: Selectivity ratio of Ki for JAK2 kinase domain to Ki for JAK1 kinase domain.
For data set [3], the target named is T1, Tyrosine-protein kinase JAK1.
Data set [4] is described as follows: Oral bioavailability in Sprague-Dawley rat at 2 mg/kg administered as suspension. Format: ADME, organism-based. The settings on record: in vivo.
Data set [5] can be described thus: AUC in Sprague-Dawley rat at 2 mg/kg, po administered as suspension. In kind it is ADME, organism-based. Set-up: dose 2 mg/kg, route oral. The conditions noted are these: plasma.
Data set [6] is described as follows: Half life in Sprague-Dawley rat at 0.4 mg/kg, iv administered as bolus dose. In kind it is ADME, organism-based. Also noted: dose 0.4 mg/kg, route intravenous. The conditions noted are these: in vivo.
The nature of data set [7]: Volume of distribution at steady state in Sprague-Dawley rat at 0.4 mg/kg, iv administered as bolus dose. In kind it is ADME, organism-based. Also noted: dose 0.4 mg/kg, route intravenous. The settings on record: in vivo, read-out: Vdss.
Data set [8] is described as follows: Clearance in Sprague-Dawley rat at 0.4 mg/kg, iv administered as bolus dose. The conditions noted are these: in vivo. Set-up: dose 0.4 mg/kg, route intravenous. In kind it is ADME, organism-based.
Data set [9] concerns the target Macrophage colony-stimulating factor 1 receptor (Homo sapiens) (UniProt P07333). Briefly: Inhibition of CSF1R at 0.1 uM.
The target of data set [10] is Leucine-rich repeat serine/threonine-protein kinase 2 (Homo sapiens) (UniProt Q5S007). Briefly: Inhibition of LRRK2 at 0.1 uM.
The target of the next data set is Cytochrome P450 2D6 (Homo sapiens, UniProt P10635). As to the kind of experiment: Inhibition of CYP2D6. Format: ADME.
Cytochrome P450 2D6, sequence (P10635 whole entry): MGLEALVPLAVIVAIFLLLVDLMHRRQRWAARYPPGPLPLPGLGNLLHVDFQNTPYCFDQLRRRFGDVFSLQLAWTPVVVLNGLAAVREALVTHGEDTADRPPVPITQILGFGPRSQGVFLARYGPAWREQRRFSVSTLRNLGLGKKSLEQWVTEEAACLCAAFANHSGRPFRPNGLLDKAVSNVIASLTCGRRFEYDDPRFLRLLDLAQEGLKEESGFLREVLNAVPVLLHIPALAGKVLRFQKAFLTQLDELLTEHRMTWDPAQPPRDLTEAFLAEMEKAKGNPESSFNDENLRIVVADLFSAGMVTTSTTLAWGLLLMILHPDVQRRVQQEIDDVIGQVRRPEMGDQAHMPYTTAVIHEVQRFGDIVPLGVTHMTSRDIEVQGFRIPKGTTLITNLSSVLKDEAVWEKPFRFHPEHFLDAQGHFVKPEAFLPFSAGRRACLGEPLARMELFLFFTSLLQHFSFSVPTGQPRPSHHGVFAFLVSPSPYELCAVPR
A further data set addresses Cytochrome P450 2C19 (Homo sapiens, UniProt P33261). As to the kind of experiment: Inhibition of CYP2C19. Format: ADME.
The target in the next data set is Cytochrome P450 3A4 (Homo sapiens, UniProt P08684). Briefly: Inhibition of CYP3A4. In kind it is ADME.
Cytochrome P450 3A4, sequence (P08684 whole entry): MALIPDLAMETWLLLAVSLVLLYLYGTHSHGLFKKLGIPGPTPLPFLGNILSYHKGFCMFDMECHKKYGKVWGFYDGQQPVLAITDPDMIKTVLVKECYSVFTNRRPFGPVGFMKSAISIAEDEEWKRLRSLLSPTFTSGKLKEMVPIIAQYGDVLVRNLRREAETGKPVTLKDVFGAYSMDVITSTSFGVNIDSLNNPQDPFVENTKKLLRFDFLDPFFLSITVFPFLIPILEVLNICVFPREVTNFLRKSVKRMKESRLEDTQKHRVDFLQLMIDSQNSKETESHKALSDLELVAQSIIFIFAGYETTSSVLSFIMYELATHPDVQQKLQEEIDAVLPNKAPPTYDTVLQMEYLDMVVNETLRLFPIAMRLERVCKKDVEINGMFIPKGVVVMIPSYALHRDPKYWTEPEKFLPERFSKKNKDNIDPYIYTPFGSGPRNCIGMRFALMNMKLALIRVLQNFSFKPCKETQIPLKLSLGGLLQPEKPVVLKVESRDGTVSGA
The target in a further data set is Cytochrome P450 2C9 (Homo sapiens, UniProt P11712). As to the kind of experiment: Inhibition of CYP2C9. Format: ADME.
Cytochrome P450 2C9, sequence (P11712 whole entry): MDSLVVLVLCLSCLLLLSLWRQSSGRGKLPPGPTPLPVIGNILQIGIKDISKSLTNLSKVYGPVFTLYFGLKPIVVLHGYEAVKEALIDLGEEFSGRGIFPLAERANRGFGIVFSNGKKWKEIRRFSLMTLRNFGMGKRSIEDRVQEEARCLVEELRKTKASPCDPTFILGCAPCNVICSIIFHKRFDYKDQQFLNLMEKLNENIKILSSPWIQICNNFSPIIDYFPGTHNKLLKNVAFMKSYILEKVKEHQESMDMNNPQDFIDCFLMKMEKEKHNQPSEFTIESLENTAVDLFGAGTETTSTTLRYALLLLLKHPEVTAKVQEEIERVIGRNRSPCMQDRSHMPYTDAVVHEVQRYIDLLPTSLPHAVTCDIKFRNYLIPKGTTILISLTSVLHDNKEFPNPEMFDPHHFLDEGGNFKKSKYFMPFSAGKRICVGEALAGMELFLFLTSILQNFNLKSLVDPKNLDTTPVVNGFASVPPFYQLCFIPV
The next data set addresses T2, Cytochrome P450 1A2 (Homo sapiens, UniProt P05177).
T2 sequence (P05177 whole entry): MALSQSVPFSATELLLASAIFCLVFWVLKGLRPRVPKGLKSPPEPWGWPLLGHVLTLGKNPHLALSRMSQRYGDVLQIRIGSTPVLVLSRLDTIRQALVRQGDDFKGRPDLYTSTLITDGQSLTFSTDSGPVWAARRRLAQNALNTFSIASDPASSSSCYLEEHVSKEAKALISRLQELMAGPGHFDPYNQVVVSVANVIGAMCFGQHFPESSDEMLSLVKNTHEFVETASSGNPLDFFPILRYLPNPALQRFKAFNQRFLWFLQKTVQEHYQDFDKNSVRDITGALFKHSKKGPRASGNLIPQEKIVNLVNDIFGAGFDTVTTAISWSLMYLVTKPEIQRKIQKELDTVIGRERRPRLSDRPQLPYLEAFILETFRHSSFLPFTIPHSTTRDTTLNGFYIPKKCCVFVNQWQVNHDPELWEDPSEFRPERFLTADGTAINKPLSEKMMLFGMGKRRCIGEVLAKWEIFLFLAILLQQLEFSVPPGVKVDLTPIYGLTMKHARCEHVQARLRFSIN
Briefly: Inhibition of CYP1A2. In kind it is ADME.

Data set [11] can be described thus: Apparent permeability from apical to basal side of MDCK cells. Format: ADME, cell-based, Canis lupus familiaris. The conditions noted are these: dog.
Data set [12] is described as follows: Aqueous solubility of the compound. Format: physicochemical. The conditions noted are these: buffer.

T1 sequence (P23458 whole entry, the tested form may be a part): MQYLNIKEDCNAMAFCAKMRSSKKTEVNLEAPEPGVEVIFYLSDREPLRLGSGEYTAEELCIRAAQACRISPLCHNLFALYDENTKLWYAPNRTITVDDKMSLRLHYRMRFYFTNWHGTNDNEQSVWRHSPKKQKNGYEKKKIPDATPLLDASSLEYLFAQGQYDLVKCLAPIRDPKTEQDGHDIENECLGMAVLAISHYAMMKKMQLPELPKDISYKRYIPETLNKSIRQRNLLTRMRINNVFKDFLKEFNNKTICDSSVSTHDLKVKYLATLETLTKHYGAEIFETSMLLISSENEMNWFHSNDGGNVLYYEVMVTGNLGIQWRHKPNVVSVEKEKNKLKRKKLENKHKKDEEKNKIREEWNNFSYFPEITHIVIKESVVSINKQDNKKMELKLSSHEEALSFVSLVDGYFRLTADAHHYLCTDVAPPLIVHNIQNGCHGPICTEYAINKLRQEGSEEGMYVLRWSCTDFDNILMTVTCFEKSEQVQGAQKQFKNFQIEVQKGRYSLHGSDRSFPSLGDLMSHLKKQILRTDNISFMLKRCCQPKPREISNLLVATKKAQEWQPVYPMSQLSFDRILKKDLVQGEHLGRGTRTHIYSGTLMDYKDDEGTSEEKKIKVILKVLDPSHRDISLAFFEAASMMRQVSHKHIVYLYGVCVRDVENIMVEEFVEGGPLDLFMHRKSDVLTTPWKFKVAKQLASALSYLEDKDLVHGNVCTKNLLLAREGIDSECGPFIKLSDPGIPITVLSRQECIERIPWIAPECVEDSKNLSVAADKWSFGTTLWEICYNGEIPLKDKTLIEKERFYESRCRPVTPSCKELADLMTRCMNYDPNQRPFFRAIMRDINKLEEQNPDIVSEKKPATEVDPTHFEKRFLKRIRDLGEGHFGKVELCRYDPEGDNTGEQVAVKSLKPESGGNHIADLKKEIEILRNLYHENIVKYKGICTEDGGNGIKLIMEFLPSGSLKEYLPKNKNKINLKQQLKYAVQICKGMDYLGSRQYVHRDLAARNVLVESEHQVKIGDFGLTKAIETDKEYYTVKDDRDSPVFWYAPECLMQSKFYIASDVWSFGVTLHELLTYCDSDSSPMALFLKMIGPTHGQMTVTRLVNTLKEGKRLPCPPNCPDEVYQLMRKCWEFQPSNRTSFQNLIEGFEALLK
Macrophage colony-stimulating factor 1 receptor (Homo sapiens), sequence (P07333 whole entry): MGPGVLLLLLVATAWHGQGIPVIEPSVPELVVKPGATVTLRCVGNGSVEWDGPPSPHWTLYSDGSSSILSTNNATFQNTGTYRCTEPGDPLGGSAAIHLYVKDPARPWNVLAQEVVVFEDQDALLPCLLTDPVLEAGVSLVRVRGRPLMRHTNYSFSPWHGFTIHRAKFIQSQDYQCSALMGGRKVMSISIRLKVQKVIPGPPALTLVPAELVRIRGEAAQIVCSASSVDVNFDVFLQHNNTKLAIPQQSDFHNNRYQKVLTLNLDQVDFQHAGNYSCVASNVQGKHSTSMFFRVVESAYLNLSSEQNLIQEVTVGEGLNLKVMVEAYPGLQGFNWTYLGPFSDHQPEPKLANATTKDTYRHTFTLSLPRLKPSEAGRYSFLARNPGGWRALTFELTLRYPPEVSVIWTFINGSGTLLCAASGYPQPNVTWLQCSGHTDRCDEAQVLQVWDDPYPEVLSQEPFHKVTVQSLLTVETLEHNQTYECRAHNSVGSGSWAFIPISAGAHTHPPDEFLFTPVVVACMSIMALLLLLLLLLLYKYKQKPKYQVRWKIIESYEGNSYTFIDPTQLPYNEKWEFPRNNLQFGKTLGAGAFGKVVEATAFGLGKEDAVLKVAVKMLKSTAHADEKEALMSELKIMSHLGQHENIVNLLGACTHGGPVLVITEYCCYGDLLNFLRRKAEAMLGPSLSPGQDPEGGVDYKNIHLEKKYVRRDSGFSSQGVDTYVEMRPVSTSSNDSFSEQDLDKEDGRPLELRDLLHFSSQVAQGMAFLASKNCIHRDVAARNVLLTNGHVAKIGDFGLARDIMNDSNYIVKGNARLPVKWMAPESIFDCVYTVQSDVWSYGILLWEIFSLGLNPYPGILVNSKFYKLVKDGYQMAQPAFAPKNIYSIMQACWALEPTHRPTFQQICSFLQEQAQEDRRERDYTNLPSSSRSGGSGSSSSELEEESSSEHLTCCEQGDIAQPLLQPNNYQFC
Cytochrome P450 2C19, sequence (P33261 whole entry): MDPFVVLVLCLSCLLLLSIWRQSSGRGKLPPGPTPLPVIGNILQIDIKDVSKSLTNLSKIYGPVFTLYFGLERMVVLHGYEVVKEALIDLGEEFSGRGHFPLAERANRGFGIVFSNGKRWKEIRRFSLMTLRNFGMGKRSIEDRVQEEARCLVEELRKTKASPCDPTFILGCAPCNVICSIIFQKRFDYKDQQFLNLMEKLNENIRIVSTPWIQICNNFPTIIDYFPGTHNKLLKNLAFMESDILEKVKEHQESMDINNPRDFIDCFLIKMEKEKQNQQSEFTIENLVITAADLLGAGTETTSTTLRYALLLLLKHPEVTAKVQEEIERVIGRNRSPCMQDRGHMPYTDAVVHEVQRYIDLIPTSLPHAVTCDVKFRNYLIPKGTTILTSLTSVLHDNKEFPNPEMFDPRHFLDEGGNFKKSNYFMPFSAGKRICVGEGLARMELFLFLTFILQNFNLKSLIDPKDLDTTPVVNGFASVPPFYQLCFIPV

On to `N#CCCN1CCC(n2c(CC3CCCC3)nc3cnc4[nH]ccc4c32)CC1`, for which the EC50 – broadly, the concentration that produces a half-maximal response – in data set [1] was determined as 2000 nM. Also, the Ratio Ki in data set [2] is 4.5. In [3], the inhibitory constant (Ki) (usually a dissociation constant, usually derived from enzyme kinetics or from competition with a known ligand) came out at 16 nM.
As to `N#CCCN1CCC(n2c(CC3CCCO3)nc3cnc4[nH]ccc4c32)CC1` (racemic), the EC50 in [1] worked out at 1300 nM. In addition, the Ratio Ki in data set [2] is 1.5. Moreover, the Ki in data set [3] is 24 nM.
`CC(C)CS(=O)(=O)NCc1nc2cnc3[nH]ccc3c2n1C1CCN(CCC#N)CC1` returned an EC50 in data set [1] of 1200 nM. Also, the Ratio Ki in [2] was 11. The affinity in data set [3] corresponds to a Ki of 5.4 nM.
Take `CS(=O)(=O)NCc1nc2cnc3[nH]ccc3c2n1[C@@H]1C[C@H]2CC[C@@H]1C2`: in data set [4], the bioavailability (commonly the share of a dose that reaches the circulation, judged against a reference dose that is usually intravenous) came to 79%. The area under the curve (AUC) (commonly concentration integrated over time) in [5] came to 2.2 µM·h. Further, in [6], the half-life – broadly, how long it takes for the measured level to halve – is 1.5 h. In addition, the Vd in [7] was determined as 4 L/kg. The clearance (in general, a measure of how efficiently the substance is removed, as volume per time) in [8] came to 33 mL/min/kg. In addition, the inhibition in [9] and in [10] was more than 50% throughout. Further, the IC50 against Cytochrome P450 2D6, on Cytochrome P450 2C19, on Cytochrome P450 3A4, at Cytochrome P450 2C9 and at Cytochrome P450 1A2 was more than 10000 nM each time. In data set [11], the Papp A→B (usually how fast a substance crosses the layer from the apical side) was 8.2 ×10⁻⁶ cm/s. In addition, the concentration in solution in data set [12] (solubility) was 71 µM (≈ 25.5 µg/mL).
Consider `CC(=O)NCc1nc2cnc3[nH]ccc3c2n1C1CC2CCC1C2` (racemic), for which the EC50 in data set [1] was 160 nM. Moreover, the Ratio Ki in data set [2] is 8.4. This molecule also came in with a Ki in [3] of 3 nM.
For `CS(=O)(=O)NCCc1nc2cnc3[nH]ccc3c2n1C1CC2CCC1C2` (racemic) the same measures were 50 nM, 10 and 0.6 nM.
In data set [1], `Cn1ccc(CCc2nc3cnc4[nH]ccc4c3n2C2CCN(CCC#N)CC2)n1` registered an EC50 of 2600 nM. Moreover, in data set [2], the Ratio Ki was 7.6. The Ki in data set [3] is 13 nM.
For `CCCc1nc2cnc3[nH]ccc3c2n1C1CCN(CCC#N)CC1` the same measures were 275 nM, 2.1 and 4.6 nM.
Consider `CC(C)c1nc2cnc3[nH]ccc3c2n1C1CCN(CCC#N)CC1`, for which, in data set [1], the 50% effective concentration (EC50) was found to be 410 nM. Moreover, the Ratio Ki in [2] worked out at 4.2. In addition, in [3], the affinity corresponds to a Ki of 9.1 nM.
For `CS(=O)(=O)NCCc1nc2cnc3[nH]ccc3c2n1C1CCN(CCC#N)CC1` the same measures were more than 6000 nM, 7 and 1.7 nM.
As to `N#CCCN1CCC(n2c(C3CCC3)nc3cnc4[nH]ccc4c32)CC1`, the EC50 in data set [1] amounted to 430 nM. The Ratio Ki in data set [2] worked out at 3.6. Further, the Ki in data set [3] turned out to be 4.3 nM.
On to `N#CCCN1CCC(n2c(CC3CCOCC3)nc3cnc4[nH]ccc4c32)CC1`, for which it took 2600 nM to reach a half-maximal effect in data set [1] (EC50). For the same molecule, in data set [2], the Ratio Ki was 4.8. In addition, in data set [3], the affinity corresponds to a Ki of 43 nM.
`CS(=O)(=O)NCc1nc2cnc3[nH]ccc3c2n1C1CC2CCC1O2` (racemic) gave an EC50 in data set [1] of 4200 nM. In [2], the Ratio Ki worked out at 8. In data set [3], this molecule registered an inhibition constant Ki of 28 nM.
For `N#CCCN1CCC(n2c(CCC3CCCO3)nc3cnc4[nH]ccc4c32)CC1` (racemic) the same measures were 570 nM, 5.4 and 8.7 nM.
For `CC(=O)NCc1nc2cnc3[nH]ccc3c2n1C1CCN(CC(F)(F)F)CC1` the same measures were 1500 nM, 6.7 and 12 nM.
In the case of `CC(=O)NCCc1nc2cnc3[nH]ccc3c2n1C1CCN(CCC#N)CC1`, in data set [1], the concentration for a half-maximal effect (EC50) was more than 6500 nM. Besides, the Ratio Ki in data set [2] was 5.6. Also, the Ki in data set [3] came out at 3.7 nM.
In [1], `N#CCCN1CCC(n2c(CCn3cccn3)nc3cnc4[nH]ccc4c32)CC1` registered an EC50 of 1800 nM. Further, the Ratio Ki in data set [2] was determined as 2.6. In addition, in [3], affinity was put at a Ki of 14 nM.
`CC(=O)NCCc1nc2cnc3[nH]ccc3c2n1C1CCCCC1` showed an EC50 in [1] of 210 nM. This counts as sub-micromolar.
`CCOC(=O)NCc1nc2cnc3[nH]ccc3c2n1C1CCN(CCC#N)CC1` yielded an EC50 in [1] of 625 nM. Moreover, the Ratio Ki in data set [2] is 3.6. This molecule also yielded a Ki in data set [3] of 8.4 nM.
The molecule `N#CCCN1CCC(n2c(C3CC3)nc3cnc4[nH]ccc4c32)CC1` had an EC50 in [1] of 160 nM. For the same molecule, the Ratio Ki in [2] was 1.8.
For the molecule `CC(=O)NCc1nc2cnc3[nH]ccc3c2n1C1CCN(CCC#N)CC1`, in data set [1], the EC50 is more than 3800 nM. In [2], the Ratio Ki came out at 5.4.

The record behind these values is ChEMBL document CHEMBL2203155, “Structure-based discovery of C-2 substituted imidazo-pyrrolopyridine JAK1 inhibitors with improved selectivity over JAK2” (Bioorg Med Chem Lett, 2012).
